Experimental data reported in patent publication EP4563148A1, “MEDICINE FOR TREATING CANCER” (Science Technology Interact Co., Ltd., priority 2022, dated 2024).

Experiments:
Type in all cases: cell-based, human
γ-H2AX [1] = test: Western blot of γ-H2AX after ionizing radiation; conditions: HeLa cells, drug 30 minutes before 10 Gy of X-ray, collected two hours later
Experimental: The culture medium for the cells seeded on a 3.5 cm dish was removed, followed by washing with 1x PBS and then direct dissolution in a 1x Sodium dodecyl sulfate (SDS) sample buffer (2% SDS, 1% 2-Mercaptoethanol [2-ME], 50 mM Tris-HCL [pH 6.8], 12% glycerol, 1% Bromophenol blue [BPB]). Thereafter, the solution was subjected to ultrasonic treatment with Vibra cell (Sonics & Materials Inc., CT, USA) and heated at 95°C for 5 minutes to prepare a whole cell extract. For Western blotting, electrophoresis was performed through a 6%, 10% SDS polyacrylamide gel, and […] was done to a PVDF membrane (Millipore Corporation Darmstadt, Germany) for 1.5 h, followed by blocking with 5% skim milk-PBS for 3 to 16 h. After blocking, a primary antibody diluted with a 0.5% BSA/TBS-T or Can get signal solution (TOYOBO, Osaka, Japan) was allowed to react overnight at 4°C. After washing 3 times with PBS-T for 10 minutes, a secondary antibody diluted with 0.5% BSA/TBS-T was allowed to react at room temperature for 1 to 3 hours. […]
The day after HeLa cells were seeded, Nicaraven was added, and 30 minutes later, the cells were irradiated with 10 Gy of X-ray. […] Cell extracts were adjusted and analyzed with Western Blot. […]

[2] = tested on: homologous recombination activity; test: Assay for site-specific homologous recombination activity (ASHRA); conditions: HeLa cells, siRNA of control, BRCA1 or RAD51; 48 hours of culture with drug
Experimental: HeLa cells were seeded on a 3.5 cm dish, and the next day, siRNA was introduced. After 24 hours of culture from the introduction of siRNA, LentiCRISPRv2-ACTB-C1 and pBS-ACTB-200 GFPfr1 (vector for ASHRA measurement) were introduced, and Nicaraven was added at the same time. After further culturing for 48 hours, genomic DNA was purified using Blood Genomic DNA Extraction Mini Kit (Favorgen, Ping-tung, Taiwan). Genome quantitative PCR was performed using Go Taq qPCR master mix (Promega, Madison, WI, USA), measurement was done using CFX96 Touch Real-time PCR detection system (BioRad, Hercules, CA, USA), and knock-in efficiency was calculated by ΔΔCt method. Sequences of a primer for detecting a knock-in allele and a primer for detecting a reference allele are shown below. • For knock-in allyl detection • Forward […] • Reverse […] • For reference allyl detection • Forward […] • Reverse […] • Reference paper: NPL 2.
After 24 hours, a vector for measurement of homologous recombination activity was introduced, and Nicaraven was added. After 48 hours of culture, DNA was collected and homologous recombination activity was measured.
The homologous recombination ability was analyzed by Assay for site-specific homologous recombination activity (ASHRA) (Yoshino et al. Scientific Reports 2019, method shown in Fig. 5).

KYSE270 cells = test: Cell viability of KYSE270 cells with siRNA-reduced homologous recombination activity; conditions: KYSE270 cells with expression of RAD51 suppressed by siRNA, compared with control; 5 days of culture
Experimental: (§1) KYSE270 cells and KYSE30 cells (human esophageal squamous cell carcinoma cell line) were purchased from JCRB Cell Bank, National Institutes of Biomedical Innovation, Health and Nutrition (Osaka, Japan). KYSE270 cells and KYSE30 cells were cultured in a medium in which RPMI1640 and Ham's F12 medium (both of which were manufactured by FUJIFILM Wako Pure Chemical Corporation, Osaka, Japan) were mixed in equal amounts and 5% FBS was added at 37°C in the presence of 5% CO2.
(§2) HeLa cell suspension adjusted to 5000 cells/ml was seeded in a 96 well plate at 100 ul/well, and the next day, siRNA was introduced, followed by addition of Olaparib or Nicaraven. One hundred twenty hours after gene introduction and Olaparib addition, HeLa cells were replaced in a medium to which Presto Blue assay (Thermo-Fisher Scientific, Waltham, MA, USA) had been added so as to have a final concentration of 5%, followed by reaction in the presence of 5% CO2 at 37°C for 1 hour, and then fluorescence was measured under conditions of an excitation wavelength of 520 nm and a fluorescence wavelength of 580 to 640 nm using GloMax (registered trademark) Explorer Multimode Microplate Reader (Promega, Madison, WI, USA).
Fig. 6A. […] After 5 days of culture, cell viability was measured. […]

KYSE30 cells = test: Cell viability of KYSE30 cells with siRNA-reduced homologous recombination activity; conditions: KYSE30 cells with expression of RAD51 suppressed by siRNA, compared with control
Experimental: as §1, §2
Fig. 7. […]

HeLa cells = test: Drug sensitivity test: cell viability (Presto Blue) of HeLa cells with siRNA-reduced homologous recombination activity; conditions: 96 hours of culture
Experimental: as §2
After 96 hours of culture, cell viability was measured.
Figs. 1B and 1C show the measurement results of cell viability.

γ-H2AX [3] = test: γ-H2AX intranuclear foci immunostaining after ionizing radiation (DNA repair process); conditions: drug 30 minutes before 1.5 Gy of X-ray, 24 hours after irradiation
Experimental: After cell seeding, Nicaraven was added. After 30 minutes, the cells were irradiated with 1.5 Gy of X-ray, and after 2 hours and 24 hours, the cells were fixed and immunostained with an anti-γ-H2AX antibody.
Cells in which five or more γ-H2AX intranuclear foci were observed were counted, and the ratio was calculated and represented in a graph. Respective cells in which less than 5, 5 or more and less than 10, 10 or more and less than 20, and 20 or more γ-H2AX intranuclear foci were observed were counted, and the ratio was calculated and represented in a graph (Fig. 3D).
After IR, more γ-H2AX intranuclear foci are observed in multiple cells in 2 hours. After 24 hours, DNA double strand break is repaired, reducing the number of cells having intranuclear foci and the number of intranuclear foci per cell. Suppression of expression of RAD51 suppressed DNA damage repair. […] It is considered that more DNA damage was formed due to PARP inhibitory action. The measurement of nuclear focus of γ-H2AX 24 hours after X-ray irradiation in this example is a result in a cell having a fast cell cycle.

[4] = HeLa cells with expression of BRCA1 and RAD51 suppressed by siRNA, compared with control siRNA

Structure (SMILES)	amount of γ-H2AX (γ-H2AX [1])	homologous recombination activity [2]	cell viability (KYSE270 cells)	cell viability (KYSE30 cells)	cell viability (HeLa cells; [4])	cell viability (HeLa cells; HeLa cells, drug added 24 hours after siRNA)	γ-H2AX intranuclear foci (DNA damage remaining) (γ-H2AX [3]; HeLa cells with expression of RAD51 suppressed, compared with control)	γ-H2AX intranuclear foci (DNA damage remaining) (γ-H2AX [3]; HeLa cells, control and RAD51 siRNA)
CC(CNC(=O)c1cccnc1)NC(=O)c1cccnc1 (stereo not shown) [Nicaraven]	reduced	did not affect the homologous recombination ability	cell viability further decreased	cell viability decreased	cell viability further decreased	decreased cell viability in a concentration-dependent manner	DNA damage remained more remarkably	caused DNA damage to remain
O=C(c1cc(Cc2n[nH]c(=O)c3ccccc23)ccc1F)N1CCN(C(=O)C2CC2)CC1 [Olaparib]			decreased cell viability		decreased cell viability			
